Measurements taken from US11000033B2, “Ketone or oxime compound, and herbicide” (NISSAN CHEMICAL CORPORATION, priority 2014, dated 2021).

Legend:
Assay type in all cases: in vivo
Scirpus juncoides = test: Test Example 1: herbicidal activity, application before weed generation in submerged conditions (symbol B); conditions: application herbicide amount 320 g/ha
Method in brief: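 Flooded alluvial soil (4 cm water) was mixed-sown with the three weed species, and 2.5-leaf rice seedlings were transplanted. On sowing day, a water-diluted emulsion at a predetermined rate was applied to the water surface. After 3 weeks in a 25–30 °C greenhouse, effect was scored 0–5.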

Monochoria vaginalis = test: Test Example 2: herbicidal activity, application during weed generation in submerged conditions (symbol C); conditions: Table 23; application herbicide amount 320 g/ha; grade 0-5 by criteria of Test Example 1
Method in brief: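 Weeds emerging under flooded conditions were treated with compound formulated as an emulsion and diluted with water to the intended herbicide amount, poured onto the surface of 4 cm standing water. Seeds had been co-sown in alluvial soil; plants grew at 25° C. to 30° C. and were assessed after 3 weeks.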

Setaria viridis = test: Test Example 4: herbicidal effect by soil treatment (symbol G); conditions: for Herbicidal effect grade, G: Setaria viridis: application herbicide amount 320 g/ha; for G: Setaria viridis, herbicidal effect grade: 320 g/ha
Method in brief: (§1)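 Seeds were sown in sterilized diluvial soil, covered with about 1.5 cm of soil, and the soil surface was sprayed with a water-diluted emulsion of the compound at a predetermined rate. Plants grew in a greenhouse at 25° C. to 30° C.; effects were scored visually 3 weeks after application.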

Avena fatua = test: Test Example 4: herbicidal effect by soil treatment (symbol I); conditions: for Herbicidal effect grade, I: Avena fatua: application herbicide amount 320 g/ha; for I: Avena fatua, herbicidal effect grade: 320 g/ha
Method in brief: as §1

Alopecurus myosuroides [1] = test: Test Example 4: herbicidal effect by soil treatment (symbol J); conditions: for Herbicidal effect grade, J: Alopecurus myosuroides: application herbicide amount 320 g/ha; for J: Alopecurus myosuroides, herbicidal effect grade: 320 g/ha
Method in brief: as §1

Apera spica-venti = test: Test Example 4: herbicidal effect by soil treatment (symbol L); conditions: for Herbicidal effect grade, L: Apera spica-venti: application herbicide amount 320 g/ha
Method in brief: as §1

Abutilon theophrasti = test: Test Example 4: herbicidal effect by soil treatment (symbol M); conditions: for Herbicidal effect grade, M: Abutilon theophrasti: application herbicide amount 320 g/ha; for M: Abutilon theophrasti, herbicidal effect grade: 320 g/ha
Method in brief: as §1

Veronica persica = test: Test Example 4: herbicidal effect by soil treatment (symbol R); conditions: for Herbicidal effect grade, R: Veronica persica: application herbicide amount 320 g/ha; for R: Veronica persica, herbicidal effect grade: 320 g/ha
Method in brief: as §1

soybean = test: Test Example 4: effect on crop by soil treatment (symbol d); conditions: for Effect on crop grade, d: soybean: application herbicide amount 320 g/ha; for d: soybean, effect grade on crop: 320 g/ha
Method in brief: (§2)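 Greenhouse culture at 25° C. to 30° C. followed sowing of seed in spots on sterilized diluvial soil with a soil cover close to 1.5 cm thick.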

rice = test: Test Example 4: effect on crop by soil treatment (symbol b); conditions: for Effect on crop grade, b: directly sowed rice plant: application herbicide amount 320 g/ha; for b: directly sowed rice plant, effect grade on crop: 320 g/ha
Method in brief: as §2

wheat = test: Test Example 4: effect on crop by soil treatment (symbol e); conditions: for Effect on crop grade, e: wheat: application herbicide amount 320 g/ha; for e: wheat, effect grade on crop: 320 g/ha
Method in brief: as §2

Digitaria ciliaris = test: Test Example 5: herbicidal effect by foliage application, plastic box (symbol F); conditions: 320 g/ha, 3 weeks after application
Method in brief: (§3)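 Seeds were sown in sterilized diluvial soil, covered with about 1.5 cm of soil and grown 14 days in a greenhouse at 25° C. to 30° C. An emulsifiable formulation diluted in water to a set rate was sprayed over foliage, and injury was scored 3 weeks later.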

[2] = system: Echinochloa crus-galli var. crus-galli; test: Test Example 5: herbicidal effect by foliage application, plastic box (symbol H); conditions: 320 g/ha, 3 weeks after application
Method in brief: as §3

Alopecurus myosuroides [3] = test: Test Example 5: herbicidal effect by foliage application, plastic box (symbol J); conditions: 320 g/ha, 3 weeks after application
Method in brief: as §3

Chenopodium album = test: Test Example 5: herbicidal effect by foliage application, plastic box (symbol O); conditions: 320 g/ha, 3 weeks after application
Method in brief: as §3

rice plant = test: Test Example 5: effect on crop by foliage application, plastic box (symbol b); conditions: 320 g/ha, 3 weeks after application
Method in brief: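 Crop seed is sown alongside grass and broadleaf weed species in spots in sterilized diluvial soil, then covered to a depth of about 1.5 cm. Plants grow in a greenhouse kept at 25° C. to 30° C.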

Stellaria media = test: Test Example 4: herbicidal effect by soil treatment (symbol P); conditions: 320 g/ha
Method in brief: as §1

| Structure (SMILES) | B (Scirpus juncoides) herbicidal effect grade (Scirpus juncoides) | Herbicidal effect grade, C: Monochoria vaginalis (Monochoria vaginalis) | Herbicidal effect grade, G: Setaria viridis (Setaria viridis) | Herbicidal effect grade, I: Avena fatua (Avena fatua) | Herbicidal effect grade, J: Alopecurus myosuroides (Alopecurus myosuroides [1]) | Herbicidal effect grade, L: Apera spica-venti (Apera spica-venti) | Herbicidal effect grade, M: Abutilon theophrasti (Abutilon theophrasti) | Herbicidal effect grade, R: Veronica persica (Veronica persica) | Effect on crop grade, d: soybean (soybean) | Effect on crop grade, b: directly sowed rice plant (rice) | Effect on crop grade, e: wheat (wheat) | F: Digitaria ciliaris, herbicidal effect grade (Digitaria ciliaris) | H: Echinochloa crus-galli var. crus-galli, herbicidal effect grade [2] | J: Alopecurus myosuroides, herbicidal effect grade (Alopecurus myosuroides [3]) | O: Chenopodium album, herbicidal effect grade (Chenopodium album) | b: directly sowed rice plant, effect on crop grade (rice plant) | Herbicidal effect grade, B: Scirpus juncoides (Scirpus juncoides) | G: Setaria viridis, herbicidal effect grade (Setaria viridis) | I: Avena fatua, herbicidal effect grade (Avena fatua) | J: Alopecurus myosuroides, herbicidal effect grade (Alopecurus myosuroides [1]) | also measured |
| --- | --- | --- | --- | --- | --- | --- | --- | --- | --- | --- | --- | --- | --- | --- | --- | --- | --- | --- | --- | --- | --- |
| COCCON=C(C)CC1CC(O)=C(c2c(C)cc(Br)cc2C)C1=O (stereo not drawn) [9-017] | 2 (Herbicidal ratio of 20% or higher and lower than 40%) | 0 (Herbicidal ratio of 5% or lower (almost no effect)) | 0 (Herbicidal ratio of 5% or lower (almost no effect)) | 0 (Herbicidal ratio of 5% or lower (almost no effect)) | 0 (Herbicidal ratio of 5% or lower (almost no effect)) | 0 (Herbicidal ratio of 5% or lower (almost no effect)) | 0 (Herbicidal ratio of 5% or lower (almost no effect)) | 0 (Herbicidal ratio of 5% or lower (almost no effect)) | 0 (Herbicidal ratio of 5% or lower (almost no effect)) | 1 (Herbicidal ratio of 5% or higher and lower than 20%) | 0 (Herbicidal ratio of 5% or lower (almost no effect)) | 4 (Herbicidal ratio of 70% or higher and lower than 90%) | 5 (Herbicidal ratio of 90% or more (almost completely withered)) | 3 (Herbicidal ratio of 40% or higher and lower than 70%) | 0 (Herbicidal ratio of 5% or lower (almost no effect)) | 5 (Herbicidal ratio of 90% or more (almost completely withered)) |  |  |  |  |  |
| Cc1cc(Br)cc(C)c1C1=C(O)CC(CC(=NOCC(F)(F)F)C2CC2)C1=O (stereo not drawn) [9-009] | 0 (Herbicidal ratio of 5% or lower (almost no effect)) | 0 (Herbicidal ratio of 5% or lower (almost no effect)) | 1 (Herbicidal ratio of 5% or higher and lower than 20%) | 0 (Herbicidal ratio of 5% or lower (almost no effect)) |  | 1 (Herbicidal ratio of 5% or higher and lower than 20%) | 0 (Herbicidal ratio of 5% or lower (almost no effect)) | 1 (Herbicidal ratio of 5% or higher and lower than 20%) | 0 (Herbicidal ratio of 5% or lower (almost no effect)) | 0 (Herbicidal ratio of 5% or lower (almost no effect)) | 0 (Herbicidal ratio of 5% or lower (almost no effect)) | 4 (Herbicidal ratio of 70% or higher and lower than 90%) | 5 (Herbicidal ratio of 90% or more (almost completely withered)) | 4 (Herbicidal ratio of 70% or higher and lower than 90%) | 0 (Herbicidal ratio of 5% or lower (almost no effect)) | 5 (Herbicidal ratio of 90% or more (almost completely withered)) |  |  |  |  |  |
| COCCON=C(CC1CC(O)=C(c2c(C)cc(-n3cc(Cl)cn3)cc2C)C1=O)C1CC1 (stereo not drawn) [9-020] | 4 (Herbicidal ratio of 70% or higher and lower than 90%) | 0 (Herbicidal ratio of 5% or lower (almost no effect)) | 5 (Herbicidal ratio of 90% or more (almost completely withered)) | 0 (Herbicidal ratio of 5% or lower (almost no effect)) | 3 (Herbicidal ratio of 40% or higher and lower than 70%) | 4 (Herbicidal ratio of 70% or higher and lower than 90%) | 3 (Herbicidal ratio of 40% or higher and lower than 70%) | 0 (Herbicidal ratio of 5% or lower (almost no effect)) | 0 (Herbicidal ratio of 5% or lower (almost no effect)) | 3 (Herbicidal ratio of 40% or higher and lower than 70%) | 0 (Herbicidal ratio of 5% or lower (almost no effect)) | 5 (Herbicidal ratio of 90% or more (almost completely withered)) | 5 (Herbicidal ratio of 90% or more (almost completely withered)) | 5 (Herbicidal ratio of 90% or more (almost completely withered)) | 3 (Herbicidal ratio of 40% or higher and lower than 70%) | 5 (Herbicidal ratio of 90% or more (almost completely withered)) |  |  |  |  |  |
| CON=C(C)CC1CC(OC(=O)N(C)CCCCCl)=C(c2c(C)cc(C)cc2C)C1=O (stereo not drawn) [1-126] |  |  |  |  |  |  |  |  |  |  |  |  |  |  |  |  | 0 (Herbicidal ratio of 5% or lower (almost no effect)) | 0 (Herbicidal ratio of 5% or lower (almost no effect)) | 0 (Herbicidal ratio of 5% or lower (almost no effect)) | 3 (Herbicidal ratio of 40% or higher and lower than 70%) | L: Apera spica-venti, herbicidal effect grade (Apera spica-venti; 320 g/ha): 0 (Herbicidal ratio of 5% or lower (almost no effect)); M: Abutilon theophrasti, herbicidal effect grade (Abutilon theophrasti): 0 (Herbicidal ratio of 5% or lower (almost no effect)); P: Stellaria media, herbicidal effect grade (Stellaria media): 0 (Herbicidal ratio of 5% or lower (almost no effect)); R: Veronica persica, herbicidal effect grade (Veronica persica): 0 (Herbicidal ratio of 5% or lower (almost no effect)); d: soybean, effect grade on crop (soybean): 0 (Herbicidal ratio of 5% or lower (almost no effect)); b: directly sowed rice plant, effect grade on crop (rice): 0 (Herbicidal ratio of 5% or lower (almost no effect)); e: wheat, effect grade on crop (wheat): 0 (Herbicidal ratio of 5% or lower (almost no effect)); F: Digitaria ciliaris, herbicidal effect (criteria 0-5) (Digitaria ciliaris): 3 (Herbicidal ratio of 40% or higher and lower than 70%); H: Echinochloa crus-galli var. crus-galli, herbicidal effect (criteria 0-5) [2]: 4 (Herbicidal ratio of 70% or higher and lower than 90%); J: Alopecurus myosuroides, herbicidal effect (criteria 0-5) (Alopecurus myosuroides [3]): 5 (Herbicidal ratio of 90% or more (almost completely withered)); b: directly sowed rice plant, effect on crop (criteria 0-5) (rice plant): 4 (Herbicidal ratio of 70% or higher and lower than 90%) |
| CON=C(CC1CC(O)=C(c2c(C)cc(C)cc2C)C1=O)c1ccc(F)cc1 (stereo not drawn) [1-133] |  | 0 (Herbicidal ratio of 5% or lower (almost no effect)) |  |  |  |  |  |  |  |  |  |  |  |  |  |  | 0 (Herbicidal ratio of 5% or lower (almost no effect)) | 4 (Herbicidal ratio of 70% or higher and lower than 90%) | 0 (Herbicidal ratio of 5% or lower (almost no effect)) | 5 (Herbicidal ratio of 90% or more (almost completely withered)) | M: Abutilon theophrasti, herbicidal effect grade (Abutilon theophrasti): 0 (Herbicidal ratio of 5% or lower (almost no effect)); P: Stellaria media, herbicidal effect grade (Stellaria media): 0 (Herbicidal ratio of 5% or lower (almost no effect)); R: Veronica persica, herbicidal effect grade (Veronica persica): 0 (Herbicidal ratio of 5% or lower (almost no effect)); d: soybean, effect grade on crop (soybean): 4 (Herbicidal ratio of 70% or higher and lower than 90%); b: directly sowed rice plant, effect grade on crop (rice): 0 (Herbicidal ratio of 5% or lower (almost no effect)); e: wheat, effect grade on crop (wheat): 0 (Herbicidal ratio of 5% or lower (almost no effect)); F: Digitaria ciliaris, herbicidal effect (criteria 0-5) (Digitaria ciliaris): 0 (Herbicidal ratio of 5% or lower (almost no effect)); H: Echinochloa crus-galli var. crus-galli, herbicidal effect (criteria 0-5) [2]: 4 (Herbicidal ratio of 70% or higher and lower than 90%); J: Alopecurus myosuroides, herbicidal effect (criteria 0-5) (Alopecurus myosuroides [3]): 4 (Herbicidal ratio of 70% or higher and lower than 90%); O: Chenopodium album, herbicidal effect (criteria 0-5) (Chenopodium album): 0 (Herbicidal ratio of 5% or lower (almost no effect)); b: directly sowed rice plant, effect on crop (criteria 0-5) (rice plant): 1 (Herbicidal ratio of 5% or higher and lower than 20%) |
